target: Mitogen-activated protein kinase kinase kinase 14 (Homo sapiens, UniProt Q99558); test: Inhibition of auto-phosphorylation of human GST-tagged NIK/MAP3K14 measured for 2 hrs by AlphaScreen assay
Sequence (Q99558 whole entry): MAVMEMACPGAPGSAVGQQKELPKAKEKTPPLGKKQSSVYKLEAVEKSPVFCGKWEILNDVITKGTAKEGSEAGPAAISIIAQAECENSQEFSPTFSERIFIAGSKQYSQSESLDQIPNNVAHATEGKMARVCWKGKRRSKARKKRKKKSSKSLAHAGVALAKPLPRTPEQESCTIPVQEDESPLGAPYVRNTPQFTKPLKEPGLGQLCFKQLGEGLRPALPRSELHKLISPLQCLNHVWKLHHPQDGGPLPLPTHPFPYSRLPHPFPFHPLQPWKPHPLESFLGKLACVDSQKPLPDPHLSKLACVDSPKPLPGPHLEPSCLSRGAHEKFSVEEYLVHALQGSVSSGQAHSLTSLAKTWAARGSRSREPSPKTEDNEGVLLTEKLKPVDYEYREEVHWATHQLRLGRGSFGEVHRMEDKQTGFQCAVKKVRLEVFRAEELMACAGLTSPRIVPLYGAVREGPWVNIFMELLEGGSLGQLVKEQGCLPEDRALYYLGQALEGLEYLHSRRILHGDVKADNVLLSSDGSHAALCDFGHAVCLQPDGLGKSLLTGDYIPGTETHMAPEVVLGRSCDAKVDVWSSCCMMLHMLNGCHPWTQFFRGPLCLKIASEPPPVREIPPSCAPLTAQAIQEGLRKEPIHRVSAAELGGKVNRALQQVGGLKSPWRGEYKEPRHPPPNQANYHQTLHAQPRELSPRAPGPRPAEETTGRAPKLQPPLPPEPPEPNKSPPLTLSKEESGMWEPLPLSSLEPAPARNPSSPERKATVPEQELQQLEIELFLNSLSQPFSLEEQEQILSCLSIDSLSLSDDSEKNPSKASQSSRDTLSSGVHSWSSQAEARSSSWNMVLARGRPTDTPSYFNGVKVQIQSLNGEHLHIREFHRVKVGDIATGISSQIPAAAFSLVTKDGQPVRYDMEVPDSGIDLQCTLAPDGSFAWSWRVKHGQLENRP

Row | Structure (SMILES) | IC50 [nM]
1 | CN1CCC(O)(c2cn(-c3cccc(-c4nc(C(N)=O)c5ccccc5n4)c3)cn2)C1=O (stereo unspecified) | < 100
2 | CN1CC[C@@](O)(c2cc(-c3cccc(-c4nc(C(N)=O)c(Br)s4)c3)no2)C1=O | < 100
3 | CN1CC[C@@](O)(c2cc(-c3cccc(-c4ccc(C(N)=O)o4)c3)no2)C1=O | < 100
4 | CN1CC[C@@](O)(c2cc(-c3cccc(-c4cc(N5CC(F)(F)C5)cc(C(N)=O)n4)c3)no2)C1=O | < 100
5 | [2H]c1nc(N)c2nc(-c3cccc(-c4cnc([C@@]5(O)CCN(C)C5=O)s4)c3)ccc2n1 | < 100
6 | CN1CC[C@@](O)(c2cc(-c3cccc(-c4cc(C5CC5)nc(C(N)=O)n4)c3)no2)C1=O | < 100
